Values joined by “and” are separate entries in the source; they are usually repeats but may differ in a detail not shown here. Identical values can stand only once.

The subject of the experiment is SARS-CoV-2. Briefly: microbe, parasite or virus in culture. In kind it is cell-based.
Regarding `CC(C)C[C@H](NC(=O)OCc1cccc(Cl)c1)C(=O)N[C@@H](C[C@@H]1CCNC1=O)C(O)S(=O)(=O)O` (stereo partly shown) [EB46], the “inhibition of SARS-CoV-2 (Figure S17A dose-response, replicate values)” value (shortened to “inhibition”) is 0 (10×) and 100 (6×) and 37.5 (2×) and 50 and 12.5 (2×).
Next, `CC(C)C[C@H](NC(=O)OCc1ccc2ccccc2c1)C(=O)N[C@@H](C[C@@H]1CCNC1=O)C(O)S(=O)(=O)O` (stereo partly shown) [EB56]: 0 (5×) and 12.5 (8×) and 93.75 (3×) and 87.5 (3×) and 50 and 25.
On to `O=C(N[C@@H](CC1CCCCC1)C(=O)N[C@@H](C[C@@H]1CCNC1=O)C(O)S(=O)(=O)O)OCc1ccccc1` (stereo partly shown) [SL-4-241], for which the “inhibition” value was 0 (14×) and 100 (2×) and 81.25 and 25 (2×) and 12.5 (2×).
Take `CC(C)C[C@H](NC(=O)OCc1ccccc1Cl)C(=O)N[C@@H](C[C@@H]1CCNC1=O)C(O)S(=O)(=O)O` (stereo partly shown) [EB54]: the “inhibition” value is 0 (6×) and 100 (6×) and 50 (3×) and 12.5 (4×) and 25 (2×).
In the case of `CC(C)C[C@H](NC(=O)OCc1cccc2ccccc12)C(=O)N[C@@H](C[C@@H]1CCNC1=O)C(O)S(=O)(=O)O` (stereo partly shown) [EB55] it was 0 (10×) and 100 (4×) and 93.75 (2×) and 12.5 (5×); in that of `O=C(N[C@@H](CC1CCCCC1)C(=O)N[C@@H](C[C@@H]1CCNC1=O)C(O)S(=O)(=O)O)OCc1cccc(Cl)c1` (stereo partly shown) [EB48], 0 (11×) and 68.75 and 75 and 93.75 and 25 (3×) and 50 and 37.5 and 12.5 (2×); in that of `CC(C)CC(NC(=O)OCc1ccccc1)C(=O)NC(CC1CCNC1=O)C(O)S(=O)(=O)O` (stereo not shown) [GC376, reference compound], 0 (14×) and 87.5 and 93.75 and 100 and 37.5 and 62.5 and 68.75 and 12.5.

Values taken from paper PMC8989888, “Development of optimized drug-like small molecule inhibitors of the SARS-CoV-2 3CL protease for treatment of COVID-19” (Nature Communications, 2022).
